We go through 23 compounds from patent US12312332B2 (Merck Sharp & Dohme LLC., priority 2019, dated 2025).

The target in the experiment is T1, human OX2R (Homo sapiens, UniProt O43614).
T1 construct: expressed in transfected cells; host or cells: Chinese hamster ovary (CHO) cells, kept under G418 selection
T1 sequence (O43614 1-444): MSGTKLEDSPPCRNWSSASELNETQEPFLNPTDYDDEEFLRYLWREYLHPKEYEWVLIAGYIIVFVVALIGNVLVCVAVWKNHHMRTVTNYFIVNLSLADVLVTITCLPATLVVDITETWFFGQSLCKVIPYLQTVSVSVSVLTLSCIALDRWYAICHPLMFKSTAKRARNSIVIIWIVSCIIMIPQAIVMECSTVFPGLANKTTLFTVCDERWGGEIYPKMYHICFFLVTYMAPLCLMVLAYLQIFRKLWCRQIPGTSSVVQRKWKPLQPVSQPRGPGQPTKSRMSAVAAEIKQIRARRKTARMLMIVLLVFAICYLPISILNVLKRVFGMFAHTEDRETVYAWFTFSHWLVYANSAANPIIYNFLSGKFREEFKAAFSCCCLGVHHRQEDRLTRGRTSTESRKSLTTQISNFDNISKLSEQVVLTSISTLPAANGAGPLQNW
Nature of the experiment: IPOne (IP-One) orexin receptor agonist assay in CHO cells expressing human OX2R. It is filed as cell-based. As to conditions: for EC50: CHO cells expressing human OX2R, IP-One detection, 2 hours incubation, four parameter logistic fit, read-out: OX2R Potency, EC50; for % max agonist effect (Emax): human OX2R, percentage of sample raw value/mean max effect (reference compound at 1 uM with 100% activity).

As usually defined, the EC50 is the concentration giving half of the maximal effect. With `CS(=O)(=O)N[C@H]1CCN(c2cnccc2OCc2ccccc2)[C@H]1CO[C@H]1CC[C@@H](c2ccccc2)CC1` [Example 123, N-((2R,3S)-1-(4-(benzyloxy)pyridin-3-yl)-2-((((CIS)-4-phenylcyclohexyl)oxy)methyl)pyrrolidin-3-yl)methanesulfonamide], the EC50 turned out to be 755 nM and the “% max agonist effect (Emax)” value is on record as 97.6%.

With `CC(C)[C@H]1CC[C@@H](OC[C@H]2[C@@H](NS(C)(=O)=O)CCN2c2nccc(O)c2F)CC1` [Example 162, N-((2R,3S)-1-(3-fluoro-4-hydroxypyridin-2-yl)-2-((((CIS)-4-isopropylcyclohexyl)oxy)methyl)pyrrolidin-3-yl) methanesulfonamide], the concentration for a half-maximal effect (EC50) came to 24.3 nM and the “% max agonist effect (Emax)” value came to 98.5%.

In the case of `CS(=O)(=O)N[C@H]1CCN(c2ccc(C(F)F)cc2F)[C@H]1CO[C@H]1CC[C@@H](c2ccccc2)CC1` [Example 22, N-((2R,3S)-1-(4-(difluoromethyl)-2-fluorophenyl)-2-((((CIS)-4-phenylcyclohexyl)oxy)methyl)pyrrolidin-3-yl)methanesulfonamide], the EC50 is greater than 10000 nM and the “% max agonist effect (Emax)” value worked out at 57.5%.

On to `Cn1c(N2CC[C@H](NS(C)(=O)=O)[C@@H]2CO[C@H]2CC[C@@H](c3ccccc3)CC2)cccc1=O` [Example 116, N-((2R,3S)-1-(1-methyl-6-oxo-1,6-dihydropyridin-2-yl)-2-((((CIS)-4-phenylcyclohexyl)oxy)methyl)pyrrolidin-3-yl)methanesulfonamide], for which the EC50 was 393 nM and the “% max agonist effect (Emax)” value is given as 99.6%.

Take `C[C@@H]1C[C@H](NS(=O)(=O)N(C)C)[C@H](CO[C@H]2CC[C@@H](c3cccc(F)c3)CC2)N1c1cc(O)c(F)cn1` [Example 94, N′-((2R,3S,5R)-1-(5-fluoro-4-hydroxypyridin-2-yl)-2-((((CIS)-4-(3-fluorophenyl)cyclohexyl)oxy)methyl)-5-methylpyrrolidin-3-yl)-N,N-dimethyl-sulfamide]: the EC50 was 0.3 nM and the “% max agonist effect (Emax)” value is 99.6%.

Consider `CS(=O)(=O)N[C@H]1CCN(c2csc(C3CC3)n2)[C@H]1CO[C@H]1CC[C@@H](c2ccccc2)CC1` [Example 69, N-((2R,3S)-1-(2-cyclopropylthiazol-4-yl)-2-((((CIS)-4-phenylcyclohexyl)oxy)methyl)pyrrolidin-3-yl)methanesulfonamide], for which the EC50 is 271 nM and the “% max agonist effect (Emax)” value is listed as 99.4%.

In the case of `C[C@@H]1C[C@H](NS(=O)(=O)N(C)C)[C@H](CO[C@H]2CC[C@@H](c3cccc(F)c3)CC2)N1c1nccc(O)c1F` [Example 156, N′-((2R,3S,5R)-1-(3-fluoro-4-hydroxypyridin-2-yl)-2-((((CIS)-4-(3-fluorophenyl)cyclohexyl)oxy)methyl)-5-methylpyrrolidin-3-yl)-N,N-dimethyl-sulfamide], the EC50 stood at 0.45 nM and the “% max agonist effect (Emax)” value was 100.8%.

With `COc1ccc(N2CC[C@H](NS(C)(=O)=O)[C@@H]2CO[C@H]2CC[C@@H](c3ccccc3)CC2)cc1` (relative stereo) [Example 6, N-((CIS)-1-(4-methoxyphenyl)-2-((((CIS)-4-phenylcyclohexyl)oxy)methyl)pyrrolidin-3-yl)methanesulfonamide], the EC50 stood at 9220 nM and the “% max agonist effect (Emax)” value amounted to 25.1%.

As to `Cn1ccnc1N1CC[C@H](NS(C)(=O)=O)[C@@H]1CO[C@H]1CC[C@@H](c2ccccc2)CC1` [Example 28, N-((2R,3S)-1-(1-methyl-1H-imidazol-2-yl)-2-((((CIS)-4-phenylcyclohexyl)oxy)methyl)pyrrolidin-3-yl)methanesulfonamide], the 50% effective concentration (EC50) was determined as 105 nM and the “% max agonist effect (Emax)” value is 100.0%.

For the compound `CS(=O)(=O)N[C@H]1CCN(c2ccc(OCCF)cc2)[C@H]1CO[C@H]1CC[C@@H](c2ccccc2)CC1` [Example 36, N-((2R,3S)-1-(4-(2-fluoroethoxy)phenyl)-2-((((CIS)-4-phenylcyclohexyl)oxy)methyl)pyrrolidin-3-yl)methanesulfonamide], the EC50 came to 2790 nM and the “% max agonist effect (Emax)” value is 54.1%.

With `Cc1nc(-c2ccccc2)sc1N1CC[C@H](NS(C)(=O)=O)[C@@H]1CO[C@H]1CC[C@@H](c2ccccc2)CC1` (relative stereo) [Example 11, N-((CIS)-1-(4-methyl-2-phenylthiazol-5-yl)-2-((((CIS)-4-phenylcyclohexyl)oxy)methyl)pyrrolidin-3-yl)methanesulfonamide], the EC50 is 3450 nM and the “% max agonist effect (Emax)” value came to 87.7%.

Take `COc1cncc(N2CC[C@H](NS(C)(=O)=O)[C@@H]2CO[C@H]2CC[C@@H](c3ccccc3)CC2)c1` [Example 64, N-((2R,3S)-1-(5-methoxypyridin-3-yl)-2-((((CIS)-4-phenylcyclohexyl)oxy)methyl)pyrrolidin-3-yl)methanesulfonamide]: the EC50 is 46.3 nM and the “% max agonist effect (Emax)” value turned out to be 101.1%.

Consider `Cn1cc(N2CC[C@H](NS(C)(=O)=O)[C@@H]2CO[C@H]2CC[C@@H](c3ccccc3)CC2)cn1` [Example 40, N-((2R,3S)-1-(1-methyl-1H-pyrazol-4-yl)-2-((((CIS)-4-phenylcyclohexyl)oxy)methyl)pyrrolidin-3-yl)methanesulfonamide], for which the EC50 is 431 nM and the “% max agonist effect (Emax)” value amounted to 98.8%.

In the case of `CS(=O)(=O)NC1CCCN(c2cccnc2)C1CO[C@H]1CC[C@@H](c2ccccc2)CC1` (stereo partly drawn) [Example 159, N-(2-((((CIS)-4-phenylcyclohexyl)oxy)methyl)-1-(pyridin-3-yl)piperidin-3-yl)methanesulfamide], the EC50 amounted to 10.1 nM and the “% max agonist effect (Emax)” value was determined as 100.9%.

For `CS(=O)(=O)N[C@H]1CCN(c2cnc3cc[nH]c3c2)[C@H]1CO[C@H]1CC[C@@H](c2ccccc2)CC1` (relative stereo) [Example 7, N-((CIS)-2-((((CIS)-4-phenylcyclohexyl)oxy)methyl)-1-(1H-pyrrolo[3,2-b]pyridin-6-yl)pyrrolidin-3-yl)methanesulfonamide], the EC50 was 90.5 nM and the “% max agonist effect (Emax)” value is 100.1%.

`CS(=O)(=O)N[C@H]1CCN(c2nccc(O)c2F)[C@H]1CO[C@H]1CC[C@@H](c2ccccc2)CC1` [Example 117, N-((2R,3S)-1-(3-fluoro-4-hydroxypyridin-2-yl)-2-((((CIS)-4-phenylcyclohexyl)oxy)methyl)pyrrolidin-3-yl)methanesulfonamide]: the EC50 came out at 0.58 nM and the “% max agonist effect (Emax)” value is reported as 100.7%.

On to `COC[C@@H]1C[C@H](NS(=O)(=O)N(C)C)[C@H](CO[C@H]2CC[C@@H](c3cccc(F)c3)CC2)N1c1cc(O)c(F)cn1` [Example 93, N′-((2R,3S,5S)-1-(5-fluoro-4-hydroxypyridin-2-yl)-2-((((CIS)-4-(3-fluorophenyl)cyclohexyl)oxy)methyl)-5-(methoxymethyl)pyrrolidin-3-yl)-N,N-dimethyl-sulfamide], for which the EC50 was found to be 0.45 nM and the “% max agonist effect (Emax)” value was found to be 101.9%.

Consider `Cc1cncc(N2CC[C@H](NS(C)(=O)=O)[C@@H]2CO[C@H]2CC[C@@H](c3ccccc3)CC2)n1` [Example 62, N-((2R,3S)-1-(6-methylpyrazin-2-yl)-2-((((CIS)-4-phenylcyclohexyl)oxy)methyl)pyrrolidin-3-yl)methanesulfonamide], for which the EC50 worked out at 330 nM and the “% max agonist effect (Emax)” value is listed as 100.6%.

For `COc1cnc(N2CC[C@H](NS(C)(=O)=O)[C@@H]2CO[C@H]2CC[C@@H](c3ccccc3)CC2)cc1O` [Example 119, N-((2R,3S)-1-(4-hydroxy-5-methoxypyridin-2-yl)-2-((((CIS)-4-phenylcyclohexyl)oxy)methyl)pyrrolidin-3-yl)methanesulfonamide], the EC50 was determined as 35.8 nM and the “% max agonist effect (Emax)” value turned out to be 101.8%.

Consider `CS(=O)(=O)N[C@H]1CCN(c2ncc(F)cc2F)[C@H]1CO[C@H]1CC[C@@H](c2ccccc2)CC1` [Example 63, N-((2R,3S)-1-(3,5-difluoropyridin-2-yl)-2-((((CIS)-4-phenylcyclohexyl)oxy)methyl)pyrrolidin-3-yl)methanesulfonamide], for which the EC50 was determined as 331 nM and the “% max agonist effect (Emax)” value was determined as 101.1%.

For `CS(=O)(=O)N[C@H]1CCN(c2cncs2)[C@H]1CO[C@H]1CC[C@@H](c2ccccc2)CC1` [Example 26, N-((2R,3S)-2-((((CIS)-4-phenylcyclohexyl)oxy)methyl)-1-(thiazol-5-yl)pyrrolidin-3-yl)methanesulfonamide], the EC50 was determined as 444 nM and the “% max agonist effect (Emax)” value is given as 99.0%.

On to `Cc1nnc(-c2ccc(N3CC[C@H](NS(C)(=O)=O)[C@@H]3CO[C@H]3CC[C@@H](c4ccccc4)CC3)cc2)o1` (relative stereo) [Example 12, N-((CIS)-1-(4-(5-methyl-1,3,4-oxadiazol-2-yl)phenyl)-2-((((CIS)-4-phenylcyclohexyl)oxy)methyl)pyrrolidin-3-yl)methanesulfonamide], for which the EC50 is 10500 nM and the “% max agonist effect (Emax)” value was 68.8%.

With `CS(=O)(=O)N[C@H]1CCN(c2ncccc2C#N)[C@H]1CO[C@H]1CC[C@@H](c2ccccc2)CC1` [Example 136, N-((2R,3S)-1-(3-cyanopyridin-2-yl)-2-((((CIS)-4-phenylcyclohexyl)oxy)methyl)pyrrolidin-3-yl)methanesulfonamide], the EC50 turned out to be 164 nM and the “% max agonist effect (Emax)” value is on record as 100.6%.
